Data published in ChEMBL document CHEMBL1131012, “Heteroaryl analogues of AMPA. 2. Synthesis, absolute stereochemistry, photochemistry, and structure-activity relationships” (J Med Chem, 1998).

How the values were obtained:
[1] = molecular target: Glutamate receptor ionotropic, kainate; assay: Ability to inhibit the binding of [3H]-kainic acid radioligand to Ionotropic glutamate receptor kainate in rat brain membranes.; assay type: cell membranes
Glutamate NMDA receptor = assay: Ability to inhibit the binding of [3H]CPP radioligand to N-methyl-D-aspartate glutamate receptor in rat brain membranes.; assay type: cell membranes
[2] = molecular target: T1, Glutamate receptor ionotropic, AMPA (Rattus norvegicus, UniProt P19490+P19491+P19492+P19493)
Description: Agonist effect for Ionotropic glutamate receptor AMPA was determined from in vitro electrophysiology studies using rat cortical wedge preparation.

[3] = molecular target: T1, Glutamate receptor ionotropic, AMPA; remark: listed apart in the source
Description: Ability to inhibit the binding of [3H]AMPA radioligand to Ionotropic glutamate receptor AMPA in rat brain membranes.

| IC50 [1] | IC50 (Glutamate NMDA receptor) | EC50 [2] | IC50 [3] | SMILES |
| --- | --- | --- | --- | --- |
| > 100 µM | > 100 µM | > 1000 µM | > 100 µM | NC(Cc1c(O)noc1-c1cccnc1)C(=O)O (stereo unspecified) |
| > 100 µM | > 100 µM | 4.5 µM | 0.19 µM | N[C@@H](Cc1c(O)noc1-c1ccccn1)C(=O)O |
| > 100 µM | > 100 µM | 7.4 µM | 0.57 µM | NC(Cc1c(O)noc1-c1ccccn1)C(=O)O (stereo unspecified) |
| > 100 µM | > 100 µM | > 100 µM | > 100 µM | N[C@H](Cc1c(O)noc1-c1ccccn1)C(=O)O |
| – | – | > 100 µM | – | N[C@H](Cc1c(O)noc1-c1ccccc1)C(=O)O |
| > 100 µM | > 100 µM | 0.71 µM | 0.11 µM | N[C@@H](Cc1c(O)noc1-c1ccco1)C(=O)O |
| > 100 µM | > 100 µM | 96 µM | 5.5 µM | NC(Cc1c(O)noc1-c1ccncc1)C(=O)O (stereo unspecified) |

The remaining lines, values behind:

| SMILES | IC50 [1] | IC50 (Glutamate NMDA receptor) | EC50 [2] | IC50 [3] |
| --- | --- | --- | --- | --- |
| NC(Cc1c(O)noc1-c1ccco1)C(=O)O (stereo unspecified) | > 100 µM | > 100 µM | 1.7 µM | 0.15 µM |
| N[C@H](Cc1c(O)noc1-c1ccco1)C(=O)O | > 100 µM | > 100 µM | > 1000 µM | 100 µM |
| N[C@@H](Cc1c(-c2ccccc2)o[nH]c1=O)C(=O)O | – | – | – | 5.5 µM |
| NC(Cc1c(O)noc1-c1nccs1)C(=O)O (stereo unspecified) | 4.9 µM | > 100 µM | 2.3 µM | 0.094 µM |
| Cc1cccc(-c2onc(O)c2CC(N)C(=O)O)n1 (stereo unspecified) | > 100 µM | > 100 µM | > 1000 µM | > 100 µM |
| C=C(C)[C@H]1CN[C@H](C(=O)O)[C@H]1CC(=O)O [KAINIC ACID] | – | > 100 µM | – | – |
| NC(Cc1c(O)noc1-c1ccc2ccccc2n1)C(=O)O (stereo unspecified) | > 100 µM | > 100 µM | > 1000 µM | > 100 µM |
| NC(Cc1c(O)noc1-c1ccc(Br)o1)C(=O)O (stereo unspecified) | > 100 µM | > 100 µM | 160 µM | 12 µM |
